Measurements as given in patent US20240262803A1, “COMPOUNDS, COMPOSITIONS AND METHODS OF TREATING DISORDERS” (Chungdu Anticancer Bioscience Ltd, priority 2021, published 2024).
Where two headings read alike, the source gives them in different places.

Assays:
Type in all cases: cell-based
SW480 = test: Minimal effective concentration that elicits polyploidy, SW480; conditions: Homo sapiens, read-out: MECP: Minimal effective concentration that elicits polyploidy
[1] = tested on: liver cancer cell line T2 HCC; test: Minimal effective concentration that elicits polyploidy, T2 HCC; conditions: Mus musculus, read-out: MECP: Minimal effective concentration that elicits polyploidy
[2] = tested on: lung cancer cell line NCI-H23; test: Minimal effective concentration that elicits polyploidy, NCI-H23; conditions: Homo sapiens, read-out: MECP: Minimal effective concentration that elicits polyploidy
[3] = tested on: liver cancer cell line T2 HCC; test: MTT assay of cellular proliferation, T2 HCC; conditions: Mus musculus, read-out: EC50: Concentration that inhibits 50% of proliferation
Protocol: (§1) Six lung cancer cell lines (NCI-H23, NCI-H460, NCI-H596, NCI-H2170, Calu-6 and A549), two colon cancer cell lines (HCT116 and SW460), one breast cancer cell line MDA-MB-231, one gastric cancer cell line NCI-N87, one prostate cancer cell line DU145, one cervical cancer cell line Hela, and one glioblastoma cell line T98G were obtained from ATCC. The T2 HCC cell line was derived from a mouse liver cancer model initiated by a transgene of MYC (Reference). All cell lines were cultured in DMEM (Gibco, Cleveland, TN, USA) supplemented with 5% fetal bovine serum (Gibco), penicillin (100 U/mL)-streptomycin (100 μg/mL) (Gibco, Cat. No. 15140-122), 2 mM L-glutamine (Gibco, 200 mM solution, Cat. No. 25030081), and 1 mM sodium pyruvate (Gibco, 100 mM solution, Cat. No. 11360070) at 37° C. in a humidified incubator that was maintained at 5% CO2.
(§2) The MTT assay measures cellular metabolic activity as a proxy for cell viability and involves the conversion of the water-soluble yellow dye MTT [3-(4,5-dimethylthiazol-2-yl)-2,5-diphenyltetrazolium bromide] into an insoluble purple formazan by the action of mitochondrial reductase. Formazan is then solubilized and its concentration is determined by measuring the optical density (OD) value at a wavelength of 570 nm. The value is in proportional to the number of live cells with excellent linearity up to ˜10^6 cells per well. The MTT assay was used to determine the EC50 value, the concentration of a compound that leads to 50% inhibition of cellular proliferation. Briefly, cells were split when growing to the mid-Log phase. Cells in 100 μL of culture medium were seeded into each well of 96-well microplates and cultivated for 15˜24 hours to reach a confluence of 20˜30% and were then exposed to drugs at concentrations ranging from 1 nM to 10 μM. At the endpoint, 20 μL of a MTT stock solution in DMSO (5 mg/mL) was added to each well that contains […] of DMEM. The microplates were left in the cell culture incubator for 3˜4 h before subjected to solubilization and determination of formazan at A570 in a microplate reader (BioTek ELX808iu). […] Therefore, these compounds might hold a broad utility in the treatment of a large variety of human malignancies.

[4] = tested on: gastric cancer cell line NCI-N87; test: Minimal effective concentration that elicits polyploidy, NCI-N87; conditions: Homo sapiens, read-out: MECP: Minimal effective concentration that elicits polyploidy
[5] = tested on: cervical cancer cell line Hela; test: Minimal effective concentration that elicits polyploidy, Hela; conditions: Homo sapiens, read-out: MECP: Minimal effective concentration that elicits polyploidy
[6] = tested on: breast cancer cell line MDA-MB-231; test: MTT assay of cellular proliferation, MDA-MB-231; conditions: Homo sapiens, read-out: EC50: Concentration that inhibits 50% of proliferation
Protocol: as §1, §2

RPEMYC^H2B-GFP cells [7] = test: Mechanism-informed phenotypic screening assay (mitotic arrest, polyploidy; GE IN-Cell Analyzer 2000); conditions: 20 nM to 20 μM, 24, 48 or 72 hours, read-out: Min. Effective conc. for polyploidy (≥5%)
Outline: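 Cells expressing Histone 2B-EGFP (RPEMYC^H2B-GFP) were plated 18-24 h before exposure to compounds at 20 nM to 20 μM. At 24, 48 or 72 h, imaging scored mitotic arrest or change in DNA content. Value is the lowest concentration giving polyploid accumulation at 48 h.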

[8] = tested on: colon cancer cell line HCT116; test: Minimal effective concentration that elicits polyploidy, HCT116; conditions: Homo sapiens, HCT-116, read-out: MECP: Minimal effective concentration that elicits polyploidy
[9] = tested on: lung cancer cell line A549; test: Minimal effective concentration that elicits polyploidy, A549; conditions: Homo sapiens, read-out: MECP: Minimal effective concentration that elicits polyploidy
[10] = tested on: cervical cancer cell line Hela; test: MTT assay of cellular proliferation, Hela; conditions: Homo sapiens, read-out: EC50: Concentration that inhibits 50% of proliferation
Protocol: as §1, §2

RPEMYC^H2B-GFP cells [11] = test: Mechanism-informed phenotypic screening assay (mitotic arrest, polyploidy; GE IN-Cell Analyzer 2000); conditions: 20 nM to 20 μM, 24, 48 or 72 hours, read-out: Mitotic Arrest (≥5%)
[12] = tested on: gastric cancer cell line NCI-N87; test: MTT assay of cellular proliferation, NCI-N87; conditions: Homo sapiens, read-out: EC50: Concentration that inhibits 50% of proliferation
Protocol: as §1, §2

[13] = tested on: lung cancer cell line A549; test: MTT assay of cellular proliferation, A549; conditions: Homo sapiens, read-out: EC50: Concentration that inhibits 50% of proliferation
Protocol: as §1, §2

[14] = tested on: colon cancer cell line SW460; test: MTT assay of cellular proliferation, SW460; conditions: Homo sapiens, SW480; read-out: EC50: Concentration that inhibits 50% of proliferation
Protocol: as §1, §2

[15] = tested on: colon cancer cell line HCT116; test: MTT assay of cellular proliferation, HCT116; conditions: Homo sapiens, HCT-116, read-out: EC50: Concentration that inhibits 50% of proliferation
Protocol: as §1, §2

[16] = tested on: breast cancer cell line MDA-MB-231; test: Minimal effective concentration that elicits polyploidy, MDA-MB-231; conditions: Homo sapiens, read-out: MECP: Minimal effective concentration that elicits polyploidy
[17] = tested on: lung cancer cell line NCI-H23; test: MTT assay of cellular proliferation, NCI-H23; conditions: Homo sapiens, read-out: EC50: Concentration that inhibits 50% of proliferation
Protocol: as §1, §2

Row | EC50 [3] | EC50 [6] | EC50 [10] | EC50 [12] | EC50 [13] | EC50 [14] | EC50 [15] | EC50 [17] | SMILES | minimal effective concentration (SW480) | minimal effective concentration [1] | minimal effective concentration [2] | minimal effective concentration [4] | minimal effective concentration [5] | minimal effective concentration (RPEMYC^H2B-GFP cells [7]) | minimal effective concentration [8] | minimal effective concentration [9] | minimal effective concentration (RPEMYC^H2B-GFP cells [11]) | minimal effective concentration [16]
1 | 1 to 1000 nM | 1 to 1000 nM | 1 to 1000 nM | 1 to 1000 nM | 1 to 1000 nM | 1 to 1000 nM | 1 to 1000 nM | 1 to 1000 nM | CNC(=O)c1cc(OC)cc(Oc2ncccc2-c2ccnc(Cl)c2)c1 [Compound 45, 3-((2′-chloro-[3,4′-bipyridin]-2-yl)oxy)-5-methoxy-N-methylbenzamide] | 0.001 to 1 µM | 0.001 to 1 µM | 0.001 to 1 µM | 0.001 to 1 µM | 0.001 to 1 µM | 1 µM | 0.001 to 1 µM | 0.001 to 1 µM | 1 µM | 0.001 to 1 µM
2 | 1 to 1000 nM | 1 to 1000 nM | 1 to 1000 nM | 1 to 1000 nM | 1 to 1000 nM | 1 to 1000 nM | 1 to 1000 nM | 1 to 1000 nM | COc1cc(Oc2ncccc2-c2ccncc2)cc(C(=O)O)c1 [Compound 3, 3-([3,4′-bipyridin]-2-yloxy)-5-methoxybenzoic acid] | 0.001 to 1 µM | 0.001 to 1 µM | 0.001 to 1 µM | 0.001 to 1 µM | 0.001 to 1 µM | > 30 µM | 0.001 to 1 µM | 0.001 to 1 µM | > 30 µM | 0.001 to 1 µM
3 | 1 to 1000 nM | 1 to 1000 nM | 1 to 1000 nM | 1 to 1000 nM | 1 to 1000 nM | 1 to 1000 nM | 1 to 1000 nM | 1 to 1000 nM | CNC(=O)c1cc(OC)cc(Oc2ncccc2-c2ccnc(OC)c2)c1 [Compound 27, 3-methoxy-5-((2′-methoxy-[3,4′-bipyridin]-2-yl)oxy)-N-methylbenzamide] | 0.001 to 1 µM | 0.001 to 1 µM | 0.001 to 1 µM | 0.001 to 1 µM | 0.001 to 1 µM | 1 µM | 0.001 to 1 µM | 0.001 to 1 µM | 1 µM | 0.001 to 1 µM
4 | 1 to 1000 nM | 1 to 1000 nM | 1 to 1000 nM | 1 to 1000 nM | 1 to 1000 nM | 1 to 1000 nM | 1 to 1000 nM | 1 to 1000 nM | COc1cc(OC)cc(Oc2ncccc2-c2ccnc(C)c2)c1 [Compound 42, 2-(3,5-dimethoxyphenoxy)-2′-methyl-3,4′-bipyridine] | 0.001 to 1 µM | 0.001 to 1 µM | 0.001 to 1 µM | 0.001 to 1 µM | 0.001 to 1 µM | 1 µM | 0.001 to 1 µM | 0.001 to 1 µM | 1 µM | 0.001 to 1 µM
5 | 1 to 1000 nM | 1 to 1000 nM | 1 to 1000 nM | 1 to 1000 nM | 1000 to 10000 nM | 1 to 1000 nM | 1 to 1000 nM | 1 to 1000 nM | COC(=O)c1cc(OC)cc(Oc2nccnc2-c2cccnc2)c1 [Compound 52, methyl 3-methoxy-5-((3-(pyridin-3-yl)pyrazin-2-yl)oxy)benzoate] | 0.001 to 1 µM | 0.001 to 1 µM | 0.001 to 1 µM | 0.001 to 1 µM | 0.001 to 1 µM | 1 µM | 0.001 to 1 µM | 0.001 to 1 µM | 1 µM | 0.001 to 1 µM
6 | 1 to 1000 nM | 1 to 1000 nM | 1 to 1000 nM | 1 to 1000 nM | 1 to 1000 nM | 1 to 1000 nM | 1 to 1000 nM | 1 to 1000 nM | COc1cc(NC(C)=O)cc(Oc2ncccc2-c2ccnc(OC)c2)c1 [Compound 34] | 0.001 to 1 µM | 0.001 to 1 µM | 0.001 to 1 µM | 0.001 to 1 µM | 0.001 to 1 µM | 1 µM | 0.001 to 1 µM | 0.001 to 1 µM | 1 µM | 0.001 to 1 µM
7 | 1 to 1000 nM | 1 to 1000 nM | 1 to 1000 nM | 1 to 1000 nM | 1 to 1000 nM | 1 to 1000 nM | 1 to 1000 nM | 1 to 1000 nM | COc1cc(Oc2ncccc2-c2ccnc(OC)c2)cc(C(F)(F)F)c1 [Compound 30, 2′-methoxy-2-(3-methoxy-5-(trifluoromethyl)phenoxy)-3,4′-bipyridine] | 0.001 to 1 µM | 0.001 to 1 µM | 0.001 to 1 µM | 0.001 to 1 µM | 0.001 to 1 µM | 1 µM | 0.001 to 1 µM | 0.001 to 1 µM | 1 µM | 0.001 to 1 µM
8 | 1 to 1000 nM | 1 to 1000 nM | 1 to 1000 nM | 1 to 1000 nM | 1 to 1000 nM | 1 to 1000 nM | 1 to 1000 nM | 1 to 1000 nM | COc1cc(NC(C)=O)cc(Oc2ncccc2-c2ccnc(C)c2)c1 [Compound 43, N-(3-methoxy-5-((2′-methyl-[3,4′-bipyridin]-2-yl)oxy)phenyl)acetamide] | 0.001 to 1 µM | 0.001 to 1 µM | 0.001 to 1 µM | 0.001 to 1 µM | 0.001 to 1 µM | 1 µM | 0.001 to 1 µM | 0.001 to 1 µM | 1 µM | 0.001 to 1 µM
9 | 1 to 1000 nM | 1 to 1000 nM | 1 to 1000 nM | 1 to 1000 nM | 1 to 1000 nM | 1 to 1000 nM | 1 to 1000 nM | 1 to 1000 nM | COc1cc(OC)cc(Oc2nccnc2-c2ccnc(OC)c2)c1 [Compound 35, 2-(3,5-dimethoxyphenoxy)-3-(2-methoxypyridin-4-yl)pyrazine] | 0.001 to 1 µM | 0.001 to 1 µM | 0.001 to 1 µM | 0.001 to 1 µM | 0.001 to 1 µM | 1 µM | 0.001 to 1 µM | 0.001 to 1 µM | 1 µM | 0.001 to 1 µM
